Measurements: patent publication US20130012466A1 (priority 2006, published 2013)
“Also recorded” adds a separate entry of the source. Where two headings read alike, the source gives them in different places.

Tests used:
NCI-H460 = assay: Cytotoxicity assay (cell titer-glo and calcein AM), NCI-H460
Du145 = assay: Cytotoxicity assay (cell titer-glo and calcein AM), Du145
MCF7 = assay: Cytotoxicity assay (cell titer-glo and calcein AM), MCF7
tubulin = assay: In vitro tubulin polymerization assay (fluorescence-based); type: biochemical; set-up: key to tubulin polymeriz.: ‘D’ designates destabilizer; ‘S’ designates stabilizer; conditions: for effect on tubulin polymerization / microtubules: tested in duplicate on at least two days
Procedure: In vitro tubulin polymerization assays were performed using a fluorescence-based assay (Cytoskeleton, Inc., Denver, Colo.). […] Aliquots (5 μL) of each compound or control were added to a 96-well black half area plate (Corning Costar, Inc.) pre-warmed to 37° C. Cold tubulin reaction mix (50 μL 1× Buffer—80 mM piperazine-N,N′-bis[2-ethanesulfonic acid]sequisodium salt; 2.0 mM magnesium chloride; 0.5 mM ethylene glycol-bis[β-amino-ethyl ether) N,N,N′,N′-tetra-acetic acid, pH 6.9, 10 μM fluorescent reporter; 20% tubulin glycerol buffer—80 mM piperazine-N,N′-bis[2-ethanesulfonic acid] sequisodium salt; 2.0 mM magnesium chloride; 0.5 mM ethylene glycol-bis(β-amino-ethyl ether) N,N,N′,N′-tetra-acetic acid, 60% v/v glycerol, pH 6.9, 1 mM GTP; and 2 mg mL^−1 tubulin stock) was added to each of the compounds. […] Polymerization curves were generated in Excel after background correction and the effects of test compounds were compared to controls.
Library members that accelerated the rate of tubulin polymerization were deemed microtubule stabilizers, whereas compounds that decelerated the rate of tubulin polymerization were deemed microtubule de-stabilizers.

[1] = test system: mouse mammary normal epithelial control cell line; assay: Cytotoxicity assay, normal control cell line
A549 cells [2] = assay: Drug combination study with colchicine (Chou-Talalay combination index); conditions: for plus colchicine, mean CI / plus colchicine, median CI: combination index, colchicine held at IC10, A549 cells; for interaction with colchicine: drug combination, A549 cells, Chou-Talalay
Procedure: (§1) Ten thousand A549 cells per well were plated in triplicate in 96 well black tissue culture treated plates. Cells were incubated for one hour at 37° C. to allow cells to attach.
(§2) All synergy experiment results were replicated at least three times and the overall effects analyzed by averaging all combination indexes generated if the fraction affected was greater than 0.2.

ADR-RES = assay: Cytotoxicity assay (cell titer-glo and calcein AM), ADR-RES
A549 = assay: Cytotoxicity assay (cell titer-glo and calcein AM), A549
[3] = test system: nine human cancer cell lines and one normal mouse control cell line; assay: Cytotoxicity screen across the whole cell line panel; type: cell-based
SF-268 = assay: Cytotoxicity assay (cell titer-glo and calcein AM), SF-268
Hep3B = assay: Cytotoxicity assay (cell titer-glo and calcein AM), Hep3B
A549 cells [4] = assay: Drug combination study with paclitaxel (Chou-Talalay combination index); conditions: for synergy (paclitaxel): combination index class, combination with paclitaxel, Chou-Talalay method; for plus paclitaxel, mean CI / plus paclitaxel, median CI: combination index, paclitaxel held at IC10, A549 cells; for interaction with paclitaxel/taxol: drug combination, A549 cells, Chou-Talalay;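 as to all read-outs here: combination indexes averaged only over points where fraction affected exceeded 0.2, with each synergy experiment repeated at least three times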
Procedure: as §1, §2

SK-OV-3 = assay: Cytotoxicity assay (cell titer-glo and calcein AM), SK-OV-3
HCT-116 = assay: Cytotoxicity assay (cell titer-glo and calcein AM), HCT-116
[5] = read-out: Cytotoxicity IC50, NCI-H460, CTG, NCI-H460, CTG (cell titer-glo) readout, % error in parentheses
[6] = read-out: Cytotoxicity IC50, NCI-H460, calcein, NCI-H460, calcein AM readout, % error in parentheses
[7] = read-out: Cytotoxicity IC50, Du145, CTG, Du145, CTG (cell titer-glo) readout, % error in parentheses
[8] = read-out: Cytotoxicity IC50, Du145, calcein, Du145, calcein AM readout, % error in parentheses
[9] = read-out: Cytotoxicity IC50, MCF7, CTG, CTG (cell titer-glo) readout, % error in parentheses
[10] = read-out: Cytotoxicity IC50, MCF7, calcein, calcein AM readout, % error in parentheses
[11] = read-out: Cytotoxicity IC50, NmuMG, CTG, CTG (cell titer-glo) readout, % error in parentheses
[12] = read-out: Cytotoxicity IC50, NmuMG, calcein, calcein AM readout, % error in parentheses
[13] = read-out: Cytotoxicity IC50, NCI/ADR RES, CTG, NCI/ADR RES, CTG (cell titer-glo) readout, % error in parentheses
[14] = read-out: Cytotoxicity IC50, NCI/ADR RES, calcein, NCI/ADR RES, calcein AM readout, % error in parentheses
[15] = read-out: Cytotoxicity IC50, A549, CTG, A549, CTG (cell titer-glo) readout, % error in parentheses
[16] = read-out: Cytotoxicity IC50, A549, calcein, A549, calcein AM readout, % error in parentheses
[17] = read-out: Cytotoxicity IC50, SF-268, CTG, SF-268, CTG (cell titer-glo) readout, % error in parentheses
[18] = read-out: Cytotoxicity IC50, SF-268, calcein, SF-268, calcein AM readout, % error in parentheses
[19] = read-out: Cytotoxicity IC50, Hep 3B, CTG, Hep 3B, CTG (cell titer-glo) readout, % error in parentheses
[20] = read-out: Cytotoxicity IC50, Hep 3B, calcein, Hep 3B, calcein AM readout, % error in parentheses
[21] = read-out: Cytotoxicity IC50, SK-OV-3, CTG, SK-OV-3, CTG (cell titer-glo) readout, % error in parentheses
[22] = read-out: Cytotoxicity IC50, SK-OV-3, calcein, SK-OV-3, calcein AM readout, % error in parentheses
[23] = read-out: Cytotoxicity IC50, HCT-116, CTG, HCT-116, CTG (cell titer-glo) readout, % error in parentheses
[24] = read-out: Cytotoxicity IC50, HCT-116, calcein, HCT-116, calcein AM readout, % error in parentheses
[25] = Homo sapiens, DU-145, read-out: Cytotoxicity IC50, Du145, CTG
[26] = Homo sapiens, DU-145, read-out: Cytotoxicity IC50, Du145, calcein
[27] = Homo sapiens, HCT-116, read-out: Cytotoxicity IC50, HCT-116, CTG
[28] = Homo sapiens, HCT-116, read-out: Cytotoxicity IC50, HCT-116, calcein
[29] = Homo sapiens, NCI/ADR-RES, read-out: Cytotoxicity IC50, NCI/ADR RES, calcein
[30] = Homo sapiens, SF-268, read-out: Cytotoxicity IC50, SF-268, calcein
[31] = Homo sapiens, Hep3B, read-out: Cytotoxicity IC50, Hep 3B, calcein
[32] = Homo sapiens, SK-OV-3, read-out: Cytotoxicity IC50, SK-OV-3, CTG
[33] = Homo sapiens, SK-OV-3, read-out: Cytotoxicity IC50, SK-OV-3, calcein

Molecule	IC50 (NCI-H460; [5]) [nM]	IC50 (NCI-H460; [6]) [nM]	IC50 (Du145; [7]) [nM]	IC50 (Du145; [8]) [nM]	IC50 (MCF7; [9]) [nM]	IC50 (MCF7; [10]) [nM]	tubulin polymeriz. (tubulin)	effect on tubulin polymerization / microtubules (tubulin)	IC50 [1, 11] [nM]	IC50 [1, 12] [nM]	IC50 (ADR-RES; [13]) [nM]	IC50 (ADR-RES; [14]) [nM]	IC50 (A549; [15]) [nM]	IC50 (A549; [16]) [nM]	IC50 (SF-268; [17]) [nM]	IC50 (SF-268; [18]) [nM]	IC50 (Hep3B; [19]) [nM]	IC50 (Hep3B; [20]) [nM]	IC50 (SK-OV-3; [21]) [nM]	IC50 (SK-OV-3; [22]) [nM]	also measured
2-deoxy-D-galactoside [Col6]	745	948	892	958	665	2220	D	destabilizing; also recorded: destabilized microtubules	3260	4170	877	887	782	942	632	691	817	1120	388	381	plus colchicine, mean CI (A549 cells [2]): 1.30; plus colchicine, median CI (A549 cells [2]): 1.19; interaction with colchicine (A549 cells [2]): antagonism; IC50 ([3]; all cell lines other than SK-OV-3, range printed with mixed units nM-μM, read-out: potencies (IC50) in all other cell lines): 691 to 1120 nM; synergy (paclitaxel) (A549 cells [4]): + (slight synergism, Cl 0.85-0.9); plus paclitaxel, mean CI (A549 cells [4]): 0.88; plus paclitaxel, median CI (A549 cells [4]): 0.52; interaction with paclitaxel/taxol (A549 cells [4]): synergy; IC50 (SK-OV-3; read-out: IC50 in SK-OV-3 cells): 381 nM
2-deoxy-L-riboside [Col19]	415	191	369	262	916	2820	S	stabilizing; also recorded: stabilized the microtubules	2910	2850	359	315	376	636	284	575	376	437	240	538	plus colchicine, mean CI (A549 cells [2]): 0.54; plus colchicine, median CI (A549 cells [2]): 0.50; interaction with colchicine (A549 cells [2]): synergism; reduction in potency relative to (1) ([3]; versus parent colchicine): ~10 fold; synergy (paclitaxel) (A549 cells [4]): — (moderate antagonism, Cl 1.2-1.45); plus paclitaxel, mean CI (A549 cells [4]): 43.20; plus paclitaxel, median CI (A549 cells [4]): 13.40; interaction with paclitaxel/taxol (A549 cells [4]): antagonism
6-thio-D-mannose dimer [Col58]	> 10000	> 10000	2090	2120	2500	3860			6390	> 10000	3600	1570	3920	4620	8010	9090	8620	5020	6070	7560	IC50 (HCT-116; [23]): 1900 nM; IC50 (HCT-116; [24]): 2510 nM
COc1cc2c(c(OC)c1OC)-c1ccc(OC)c(=O)cc1C(NC(=O)CN(OC)C1CC(O)C(O)C(C)O1)CC2 [Col65, D-Digitoxoside]	862	744	850	939	946	648	no effect	no apparent effect	7750	3320	893	694	1490	2300	800	665	1700	1880	634	1030	IC50 (HCT-116; [23]): 918 nM; IC50 (HCT-116; [24]): 897 nM
CONCC(=O)N[C@H]1CCc2cc(OC)c(OC)c(OC)c2-c2ccc(OC)c(=O)cc21 [Col 8, 19-N-methoxyamino-colchicine]																					IC50 (Du145; [25]): 64 nM; IC50 (Du145; [26]): 84 nM; IC50 (HCT-116; [27]): 116 nM; IC50 (HCT-116; [28]): 98 nM; plus colchicine, mean CI (A549 cells [2]): 2.98; plus colchicine, median CI (A549 cells [2]): 1.47; interaction with colchicine (A549 cells [2]): antagonism; IC50 (ADR-RES; Homo sapiens, NCI/ADR-RES, read-out: Cytotoxicity IC50, NCI/ADR RES, CTG): 79 nM; IC50 (ADR-RES; [29]): 65 nM; IC50 (SF-268; Homo sapiens, SF-268, read-out: Cytotoxicity IC50, SF-268, CTG): 116 nM; IC50 (SF-268; [30]): 191 nM; IC50 (Hep3B; Homo sapiens, Hep3B, read-out: Cytotoxicity IC50, Hep 3B, CTG): 141 nM; IC50 (Hep3B; [31]): 284 nM; plus paclitaxel, mean CI (A549 cells [4]): 0.90; plus paclitaxel, median CI (A549 cells [4]): 0.57; interaction with paclitaxel/taxol (A549 cells [4]): synergy; IC50 (SK-OV-3; [32]): 455 nM; IC50 (SK-OV-3; [33]): 316 nM
CC(=O)O[C@H]1C(=O)[C@@]2(C)[C@H]([C@H](OC(=O)c3ccccc3)[C@]3(O)C[C@H](OC(=O)[C@H](O)[C@@H](NC(=O)c4ccccc4)c4ccccc4)C(C)=C1C3(C)C)[C@]1(OC(C)=O)CO[C@@H]1C[C@@H]2O [paclitaxel, reference compound]							S	stabilizing; also recorded: stabilized the microtubules													IC50 (NCI-H460; Homo sapiens, NCI-H460, read-out: IC50 (NCI-H460)): 105 nM; IC50 (Du145; [25]): 432 nM; IC50 (Du145; [26]): 290 nM; IC50 (Du145; Homo sapiens, DU-145, read-out: IC50 (Du145)): 290 nM; IC50 (HCT-116; [27]): 168 nM; IC50 (HCT-116; [28]): 275 nM; IC50 (HCT-116; Homo sapiens, HCT-116, read-out: IC50 (HCT-116)): 275 nM; IC50 (ADR-RES; [29]): 43 nM; IC50 (ADR-RES; Homo sapiens, read-out: IC50 (ADR-RES)): 43 nM; IC50 (A549; Homo sapiens, A549, read-out: IC50 (A549)): 75 nM; IC50 (SF-268; [30]): 315 nM; IC50 (SF-268; Homo sapiens, SF-268, read-out: IC50 (SF-268)): 315 nM; IC50 (Hep3B; [31]): 166 nM; IC50 (Hep3B; Homo sapiens, Hep3B, read-out: IC50 (Hep3B)): 166 nM; IC50 (SK-OV-3; [32]): 42 nM; IC50 (SK-OV-3; [33]): 34 nM; IC50 (SK-OV-3; Homo sapiens, SK-OV-3, read-out: IC50 (SK-OV-3)): 34 nM
